Reference: ChEMBL document CHEMBL1201862, “PubChem BioAssay data set” (2004)
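Grown in 96-well plates, cells were treated for 48 hours with each compound at five concentrations. Insufficient inhibition: endpoint recorded as highest concentration tested. At the GI50, growth is halved.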 Calls of active or inactive are those of the source. Rule as the data show it: active = GI50 up to about 1.1 µM and inactive = higher.

Legend:
Assay in all cases: NCI-60 cell line screen, 48 h
786-0 = system: 786-0
HL-60 = system: HL-60
SK-MEL-5 = system: SK-MEL-5
SNB-75 = system: SNB-75
UACC-62 = system: UACC-62
HOP-62 = system: HOP-62
M14 = system: M14
NCI-H226 = system: NCI-H226
UO-31 = system: UO-31
MOLT-4 = system: MOLT-4
HCC 2998 = system: HCC 2998
HCT-15 = system: HCT-15
ACHN = system: ACHN
OVCAR-5 = system: OVCAR-5
TK-10 = system: TK-10
NCI-H23 = system: NCI-H23
CAKI-1 = system: CAKI-1

Compound | GI50 (786-0) | GI50 (HL-60) | GI50 (SK-MEL-5) | GI50 (SNB-75) | GI50 (UACC-62) | GI50 (HOP-62) | GI50 (M14) | GI50 (NCI-H226) | GI50 (UO-31) | GI50 (MOLT-4) | GI50 (HCC 2998) | GI50 (HCT-15) [µM] | GI50 (ACHN) | GI50 (OVCAR-5) | GI50 (TK-10) | GI50 (NCI-H23) | GI50 (CAKI-1)
CC1(Br)S(=O)(=O)OCCOS1(=O)=O | > 100 µM (inactive) | > 100 µM (inactive) | > 100 µM (inactive) | > 100 µM (inactive) | > 100 µM (inactive) | > 100 µM (inactive) | > 100 µM (inactive) | > 100 µM (inactive) | > 100 µM (inactive) | > 100 µM (inactive) | > 100 µM (inactive) | > 100 | > 100 µM (inactive) | > 100 µM (inactive) | > 100 µM (inactive) | > 100 µM (inactive) | 
COc1ccc2c(c1)C(=O)C1CC(=O)CCC21 (stereo not drawn) | > 100 µM (inactive) | > 100 µM (inactive) | > 100 µM (inactive) | > 100 µM (inactive) | > 100 µM (inactive) | > 100 µM (inactive) | > 100 µM (inactive) | > 100 µM (inactive) | > 100 µM (inactive) | > 100 µM (inactive) | > 100 µM (inactive) | > 100 | > 100 µM (inactive) | > 100 µM (inactive) | > 100 µM (inactive) | > 100 µM (inactive) | > 100 µM (inactive)
O=C(O)c1c([N+](=O)[O-])cc(C(F)(F)F)cc1[N+](=O)[O-] | > 100 µM (inactive) | > 100 µM (inactive) | > 100 µM (inactive) |  |  | > 100 µM (inactive) | > 100 µM (inactive) | > 100 µM (inactive) | > 100 µM (inactive) | > 100 µM (inactive) |  | > 100 | > 100 µM (inactive) | > 100 µM (inactive) | > 100 µM (inactive) | > 100 µM (inactive) | > 100 µM (inactive)
COc1ccc(NC(=O)C(=O)NNC(=O)c2sc(NNC(C)=O)nc2C)c([N+](=O)[O-])c1 | > 100 µM (inactive) | 42.7 µM (inactive) | > 100 µM (inactive) |  | 82.6 µM (inactive) | > 100 µM (inactive) | > 100 µM (inactive) | > 100 µM (inactive) | > 100 µM (inactive) | 36 µM (inactive) | > 100 µM (inactive) | 91.6 | 45.5 µM (inactive) | > 100 µM (inactive) | > 100 µM (inactive) | > 100 µM (inactive) | 
O=C(/C(=C/c1ccc(Cl)cc1)c1ccccc1)c1ccccc1 | 22.3 µM (inactive) | 19.9 µM (inactive) |  | 22.8 µM (inactive) | 15.6 µM (inactive) | 25.9 µM (inactive) | 16.3 µM (inactive) | 17.1 µM (inactive) | 27 µM (inactive) | 17.8 µM (inactive) | 16.9 µM (inactive) | 15.4 | 19.7 µM (inactive) | 22.6 µM (inactive) | 25.4 µM (inactive) | 17.5 µM (inactive) | 
CC1(c2cccc(N)c2)C2C(=O)NC(=O)C1C(=O)NC2=O (stereo not drawn) | 38.3 µM (inactive) | 19.6 µM (inactive) | 18.5 µM (inactive) | 28.1 µM (inactive) | 33.3 µM (inactive) | 32.2 µM (inactive) | 36.7 µM (inactive) | 28.1 µM (inactive) | 22.3 µM (inactive) | 18 µM (inactive) | 52.2 µM (inactive) | 36.2 | 28.2 µM (inactive) | 38.6 µM (inactive) | 50.9 µM (inactive) | 22.1 µM (inactive) | 61.9 µM (inactive)
O=C1OC(=O)C23CSCC12C1C=CC3O1 (stereo not drawn) | > 100 µM (inactive) | > 100 µM (inactive) | > 100 µM (inactive) | > 100 µM (inactive) | > 100 µM (inactive) | > 100 µM (inactive) | > 100 µM (inactive) | > 100 µM (inactive) | > 100 µM (inactive) | > 100 µM (inactive) | > 100 µM (inactive) | > 100 | > 100 µM (inactive) | > 100 µM (inactive) | > 100 µM (inactive) | > 100 µM (inactive) | > 100 µM (inactive)
N#CC1CC2(C1)OCCS2 (stereo not drawn) | > 100 µM (inactive) | > 100 µM (inactive) |  | 32.3 µM (inactive) | > 100 µM (inactive) | > 100 µM (inactive) | > 100 µM (inactive) | > 100 µM (inactive) | > 100 µM (inactive) | > 100 µM (inactive) | > 100 µM (inactive) | > 100 | > 100 µM (inactive) | > 100 µM (inactive) | > 100 µM (inactive) | > 100 µM (inactive) | > 100 µM (inactive)
CCC1(C(=O)OC)CCc2c(OC)ccc(OC)c2C1=O (stereo not drawn) | > 100 µM (inactive) | > 100 µM (inactive) | > 100 µM (inactive) |  | > 100 µM (inactive) | > 100 µM (inactive) | > 100 µM (inactive) |  | > 100 µM (inactive) | > 100 µM (inactive) | > 100 µM (inactive) | > 100 | > 100 µM (inactive) | > 100 µM (inactive) | > 100 µM (inactive) | > 100 µM (inactive) | > 100 µM (inactive)
C/C(CCn1[nH]c(=O)ccc1=O)=N\NC(=O)C(N)=O | > 100 µM (inactive) | > 100 µM (inactive) | > 100 µM (inactive) | > 100 µM (inactive) | > 100 µM (inactive) | > 100 µM (inactive) | > 100 µM (inactive) | > 100 µM (inactive) | > 100 µM (inactive) |  | > 100 µM (inactive) | > 100 | > 100 µM (inactive) | > 100 µM (inactive) | > 100 µM (inactive) | > 100 µM (inactive) | > 100 µM (inactive)
CCOC(=O)CCC1(C(=O)OCC)CCCCC1=O (stereo not drawn) | > 100 µM (inactive) | > 100 µM (inactive) | > 100 µM (inactive) | > 100 µM (inactive) |  | > 100 µM (inactive) |  |  | > 100 µM (inactive) | > 100 µM (inactive) | > 100 µM (inactive) |  | > 100 µM (inactive) | > 100 µM (inactive) | > 100 µM (inactive) | > 100 µM (inactive) | 
Cc1nc(Nc2ccc([N+](=O)[O-])cc2)sc1C(/C=C/c1ccc(N(C)C)cc1)=N/NC(=O)c1ccccc1 | 85.9 µM (inactive) | 22.6 µM (inactive) |  | > 100 µM (inactive) | 4.84 µM (inactive) | 40 µM (inactive) | 48.8 µM (inactive) | 63 µM (inactive) | 89.3 µM (inactive) | 41.9 µM (inactive) | 41.3 µM (inactive) | 29.6 | 39.6 µM (inactive) | > 100 µM (inactive) | 52.8 µM (inactive) | 47.8 µM (inactive) | > 100 µM (inactive)
COC(=O)C12C3C4C1C1C2C3C41C(=O)O (stereo not drawn) | > 100 µM (inactive) | > 100 µM (inactive) | > 100 µM (inactive) |  | > 100 µM (inactive) | > 100 µM (inactive) | > 100 µM (inactive) | > 100 µM (inactive) | > 100 µM (inactive) | > 100 µM (inactive) | > 100 µM (inactive) | > 100 | > 100 µM (inactive) | > 100 µM (inactive) | > 100 µM (inactive) | > 100 µM (inactive) | > 100 µM (inactive)
CCOC(=O)c1cn(Cc2ccccc2)c(=O)n1Cc1ccccc1 | > 100 µM (inactive) | 6.93 µM (inactive) | > 100 µM (inactive) | > 100 µM (inactive) | > 100 µM (inactive) | > 100 µM (inactive) | > 100 µM (inactive) | > 100 µM (inactive) | 48.9 µM (inactive) | 35 µM (inactive) | > 100 µM (inactive) | 80.2 | > 100 µM (inactive) | > 100 µM (inactive) | > 100 µM (inactive) | > 100 µM (inactive) | 77.1 µM (inactive)
CCC12CC[C@H](C#N)N3CCc4c(n(c5ccccc45)C(=O)C1)C32 (stereo partly drawn) | 16.9 µM (inactive) |  | 12.7 µM (inactive) | 5.56 µM (inactive) | 12.2 µM (inactive) | 22.9 µM (inactive) | 16.4 µM (inactive) |  | 3.1 µM (inactive) | 15 µM (inactive) | 15.8 µM (inactive) | 5.2 | > 10 µM (inactive) | 21.5 µM (inactive) | 16.4 µM (inactive) | 15.4 µM (inactive) | 12.6 µM (inactive)
COc1cc(C=O)c(-c2cc3c(cc2C=O)OCO3)c(OC)c1OC | 84.9 µM (inactive) | 94.8 µM (inactive) | 94.6 µM (inactive) |  | 90.6 µM (inactive) | 108 µM (inactive) |  | 93.1 µM (inactive) |  | 96.2 µM (inactive) | 210 µM (inactive) | 73.3 | > 290 µM (inactive) | > 290 µM (inactive) | 210 µM (inactive) | 63.1 µM (inactive) | 76.9 µM (inactive)
C[C@@H]1C[C@@H]([C@H](O)CC2CC(=O)NC(=O)C2)C(=O)[C@@H](C)C1 [CYCLOHEXIMIDE] | 0.0372 µM (active) | 0.0485 µM (active) | 0.0248 µM (active) | 0.083 µM (active) | 0.118 µM (active) | 0.0596 µM (active) | 0.0532 µM (active) | 0.219 µM (active) | 0.0287 µM (active) | < 0.0176 µM (active) | 0.0378 µM (active) | 0.0433 | 0.0291 µM (active) | 0.141 µM (active) | 0.0865 µM (active) | 0.0516 µM (active) | 
COc1cc(C)c(CC/C(C)=C/Cc2cc(O)ccc2O)c(C)c1C [PANICEIN A HYDROQUINONE] | > 25 µM (inactive) | > 25 µM (inactive) | > 25 µM (inactive) | > 25 µM (inactive) |  |  | > 25 µM (inactive) | > 25 µM (inactive) | > 25 µM (inactive) | > 25 µM (inactive) | > 25 µM (inactive) | > 25 | > 25 µM (inactive) |  | > 25 µM (inactive) | > 25 µM (inactive) | > 25 µM (inactive)
